Source: patent US20260256753A1, “USE OF AN OREXIN 2 RECEPTOR AGONIST FOR IMPROVING RESPIRATORY FUNCTION DURING SLEEP” (TAKEDA PHARMACEUTICAL COMPANY LIMITED, priority 2023, published 2026)

Assays:
[1] = test system: patients with obstructive sleep apnea; experiment: Phase 1b crossover study in obstructive sleep apnea: overnight polysomnography (PSG); format: in vivo, human
Procedure: A phase 1b, randomized, double-blind, placebo-controlled, 3-period crossover study was conducted to evaluate the safety, tolerability, pharmacodynamic, and pharmacokinetic effects of overnight intravenous COMPOUND A in patients with obstructive sleep apnea (OSA). This study was planned to further evaluate COMPOUND A intravenous administration (IV) in adults with OSA, hypothesizing that nonwake-promoting exposures of COMPOUND A would increase genioglossal muscle tone and increase airway patency via the increasing activity of hypoglossal motoneurons. The main goal of this study was to evaluate the mechanistic potential of OX2R agonism for treatment of OSA using COMPOUND A IV infusion to determine appropriate use in future trials with an oral OX2R agonist.
Participants were male or female, aged 18 to 75 years inclusive, with OSA diagnosed according to the International Classification of Sleep Disorders-3 (ICSD-3) criteria and an apnea hypopnea index (AHI) of 12 to 50 events/hour of sleep. The study consisted of a screening period, 3 treatment periods separated by 2 washout periods, and a follow-up period. A total of 13 participants were enrolled and randomized, of which 12 (92.3%) participants completed all planned doses of study drug and the study.
Eligible participants were randomly assigned (in a double-blinded manner) to 1 of 6 treatment sequences. In each treatment period, participants underwent 3 UACI assessments, a 10-minute evaluation that tested the key biological mechanism that causes OSA (as described by Osman, A. M., et al., 2019, Sleep, 42 (7), 1-10), followed by an overnight polysomnography (PSG). After the first baseline UACI assessment (U1), an IV infusion regimen of COMPOUND A or placebo was administered over approximately 10 hours to achieve specific plasma concentrations to evaluate the effect of COMPOUND A on the UACI and PSG metrics. Target plasma concentrations for the low-dose COMPOUND A IV regimen were 10 ng/mL for the second UACI (U2), 30 ng/ml for the third UACI (U3), and 10 ng/ml for the overnight PSG. Target plasma concentrations for the high-dose COMPOUND A IV regimen were 30 ng/mL for the U2, 90 ng/mL for the U3, and 30 ng/ml for the overnight PSG.
To achieve the target exposures for the UACI assessments (U2 and U3), there was a 20-minute loading period, followed by a 15-minute maintenance period for each. The overnight maintenance dose (approximately 490 minutes) covered the duration of a standard overnight PSG (approximately 8 hours). Doses were selected to cover the potential pharmacologically active concentration range for upper airway collapsibility. The concentration of COMPOUND A in solution was such that participants received the same volume of fluid in the low-dose COMPOUND A regimen, the high-dose COMPOUND A regimen, and placebo, allowing the study to be double-blinded and ensuring all participants were infused with the same volume of fluid.
Following the baseline UACI measurements, IV infusion of placebo or COMPOUND A began. COMPOUND A was tested at 2 concentrations in a stepwise manner, consisting of a 20 minute loading period followed by a 15 minute maintenance period per step. The UACI was tested at each concentration during the maintenance period. A Karolinska Sleepiness Scale (KSS) was administered immediately prior to each UACI testing period to gauge subjective sleepiness. After the U3 test, a KSS was administered, after which the UACI testing equipment (pressure sensors, genioglossus EMG electrodes) was removed with the exception of EEG electrodes that remained in place to record PSG throughout the evening. Prior to lights off, a final KSS was administered. Lights-off occurred, and participants were then allowed to sleep until the following morning (Day 2). Infusion of COMPOUND A/placebo was maintained throughout the night during the nocturnal PSG (nPSG) and ended approximately 8 hours after lights off. Participants were then discharged on Day 2. […]

OX2R = target: T1, OX2R (Homo sapiens, UniProt O43614); conditions: OX2R-expressed recombinant cells; cited from earlier work
T1 sequence (O43614 1-444): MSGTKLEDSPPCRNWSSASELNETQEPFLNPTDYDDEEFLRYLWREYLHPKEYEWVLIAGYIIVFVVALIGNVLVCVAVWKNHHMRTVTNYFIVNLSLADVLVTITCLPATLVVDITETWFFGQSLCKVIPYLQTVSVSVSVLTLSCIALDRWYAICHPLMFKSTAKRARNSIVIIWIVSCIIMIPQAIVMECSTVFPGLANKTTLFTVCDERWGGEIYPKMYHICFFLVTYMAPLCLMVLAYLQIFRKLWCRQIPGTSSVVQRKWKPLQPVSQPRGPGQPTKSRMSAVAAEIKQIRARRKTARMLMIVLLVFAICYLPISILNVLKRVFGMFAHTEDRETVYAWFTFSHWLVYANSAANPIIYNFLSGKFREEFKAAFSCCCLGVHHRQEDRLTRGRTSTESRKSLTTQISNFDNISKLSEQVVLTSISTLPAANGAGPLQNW

rats = experiment: Arousal effects after oral administration in rats; format: in vivo, rat; conditions: oral administration at 10 mg/kg or more
diaphragm = experiment: EMG recording of the diaphragm in anesthetized rats; format: in vivo, rat; conditions: 10 min after administration, versus vehicle, FIG. 4
Procedure: Rats were anaesthetized with isoflurane (induction: 2%, maintenance: 1.5%). Anesthetic depth was assessed by the reflex responses to paw pinches. The tail vein was cannulated for intravenous drug administration. Rats were laid on disposable body warmers to prevent decrease in body temperature. The diaphragm was exposed, then two needle electrodes were implanted into costal diaphragm to monitor diaphragm EMG. After 10 min of baseline recording, vehicle (0.1% [w/v] Polysorbate 80 and 20% [w/v] Captisol solution) or Compound C was administered intravenously, and then EMG was recorded for 10 min. EMG was amplified using Bio amp system (ML132, AD Instruments), high-pass filtered (10 Hz), digitized, and recorded using PowerLab software (AD Instruments), and then rectified and integrated with a time constant decay (100 ms) using LabChart software (AD Instruments). Threshold levels for bursts were set using LabChart software (AD Instruments). Bursts were then automatically detected, and burst frequency was measured. Mean values in burst frequency during 2 min before vehicle or Compound C administration were used as control values, and those during 10 min after vehicle or Compound C administration were used to calculate percent of control values.

[2] = 30 ng/ml continuously throughout the sleep period

## COC(=O)N1CCC[C@H](NS(C)(=O)=O)[C@@H]1CO[C@H]1CC[C@@H](c2ccccc2)CC1 (relative stereo) [Compound A, methyl(2R,3S)-3-((methylsulfonyl)amino)-2-(((cis-4-phenylcyclohexyl)oxy)methyl) piperidine-1-carboxylate]
[1]; [2]
  REM: significantly decreased
  ability to fall asleep: did not cause an inability to fall asleep
  sleep efficiency: reducing
  wake after sleep onset: increasing
[1]; high-dose regimen
  arousal threshold in response to ventilatory disturbance: decreased
  hypoxic burden estimate: ≤ 53 %*minutes/hour
  loop gain: decreased
[1]; high-dose regimen of 30 ng/ml overnight
  AHI LS mean: less than 30 events/hour
[1]; high-dose regimen of 30 ng/ml overnight, statistically and clinically significant
  decrease in AHI: approximately 9 events/hour
[1]; high-dose regimen, OSA endotypes
  pharyngeal collapsibility during sleep (Vpassive and Vactive): appeared to decrease
[1]; high-dose regimen, placebo-adjusted difference statistically significant
  hypoxic burden: beneficial reduction in hypoxic burden
[1]; low-dose regimen
  hypoxic burden estimate: ≤ 53 %*minutes/hour
OX2R
  recruitment of β-arrestins: promote recruitment of β-arrestins

## CC(C)(O)C(=O)N1CC(F)(F)[C@H](NS(C)(=O)=O)[C@@H]1Cc1cccc(-c2cc(F)cc(F)c2)c1F [Compound C, N-{(2S,3R)-4,4-difluoro-1-(2-hydroxy-2-methylpropanoyl)-2-[(2,3′,5′-trifluoro[1,1′-biphenyl]-3-yl)methyl]pyrrolidin-3-yl}methanesulfonamide]
rats
  arousal effects: potent arousal effects
diaphragm; 1 mg/kg intravenous
  burst frequency of the diaphragm: significantly increased burst frequency
diaphragm; 3 mg/kg intravenous
  burst frequency of the diaphragm: significantly increased burst frequency
